Reference: PubChem BioAssay (NCI)
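These data come from cells grown in 96-well plates and exposed to compound for 48 hours at five concentrations. GI50 marks 50% less growth. TGI marks complete inhibition of growth.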

Columns and labels:
Assay in all cases: NCI-60 cell line screen, 48 h
[1] = test system: HS 578T breast
[2] = test system: SK-OV-3 ovarian
[3] = test system: M14 melanoma
[4] = test system: 786-0 renal
[5] = test system: SK-MEL-28 melanoma
[6] = test system: HT29 colon
[7] = test system: CCRF-CEM leukemia
[8] = test system: NCI-H522 lung
[9] = test system: RXF 393 renal
[10] = test system: UACC-257 melanoma
[11] = test system: A498 renal
[12] = test system: HOP-92 NSCLC
[13] = test system: OVCAR-3 ovarian
[14] = test system: T-47D breast
[15] = test system: HOP-62 NSCLC
[16] = test system: TK-10 renal
[17] = test system: OVCAR-4 ovarian
[18] = test system: SN12C renal
[19] = test system: MDA-MB-231 breast
[20] = test system: UACC-62 melanoma
[21] = test system: SR leukemia
[22] = test system: MDA-MB-435
[23] = test system: SK-MEL-5 melanoma
[24] = test system: HCT-15 colon
[25] = test system: SF-268 CNS
[26] = test system: MALME-3M melanoma
[27] = test system: NCI/ADR-RES ovarian
[28] = test system: HCT-116 colon
[29] = test system: OVCAR-8 ovarian
[30] = test system: U251 CNS
[31] = test system: SNB-19 CNS
[32] = test system: A549 NSCLC
[33] = test system: MDA-MB-468 breast
[34] = test system: HL-60(TB) leukemia
[35] = test system: SK-MEL-2 melanoma
[36] = test system: OVCAR-5 ovarian
[37] = test system: EKVX NSCLC
[38] = test system: MCF7 breast
[39] = test system: K-562 leukemia
[40] = test system: RPMI-8226 leukemia
[41] = test system: CAKI-1 renal
[42] = test system: IGROV1 ovarian
[43] = test system: SF-295 CNS
[44] = test system: ACHN renal
[45] = test system: COLO 205 colon
[46] = test system: NCI-H23 lung
[47] = test system: SNB-75 CNS
[48] = test system: BT-549 breast
[49] = test system: KM12 colon
[50] = test system: SF-539 CNS
[51] = test system: UO-31 renal
[52] = test system: NCI-H226 lung
[53] = test system: SW-620 colon
[54] = test system: PC-3 prostate
[55] = test system: LOX IMVI melanoma
[56] = test system: MOLT-4 leukemia
[57] = test system: NCI-H460 lung
[58] = test system: DU-145 prostate
[59] = test system: HCC-2998 colon

For `Nc1nc2cc(-c3ccc4ncnc(NCc5ccccc5)c4c3)ccc2o1`, which GI50 [1] is on record?
The GI50 was 2.41 µM.

And the TGI [1]?
Its TGI is 7.52 µM.

What about the GI50 [2] of the same compound?
The GI50 was 3.26 µM.

And the TGI [2]?
Its TGI is 12.1 µM.

And the GI50 [3]?
The GI50 was 12.4 µM.

And the TGI [3]?
Its TGI is 35.6 µM.

And the GI50 [4]?
Its GI50 is 13 µM.

What about the TGI [4] of the same compound?
Its TGI is 26.3 µM.

And the GI50 [5]?
The GI50 was 12.4 µM.

And the TGI [5]?
Its TGI is 24.8 µM.

And the GI50 [6]?
The GI50 was 7.45 µM.

What about the TGI [6] of the same compound?
Its TGI is 58.3 µM.

And the GI50 [7]?
Its GI50 is 6.08 µM.

What about the TGI [7] of the same compound?
The TGI was 30.2 µM.

And the GI50 [8]?
The GI50 was 8.72 µM.

And the TGI [8]?
Its TGI is 38.4 µM.

And the GI50 [9]?
The GI50 was 3.62 µM.

What about the TGI [9] of the same compound?
Its TGI is 16.3 µM.

And the GI50 [10]?
The GI50 was 14.4 µM.

What about the TGI [10] of the same compound?
The TGI was 32.2 µM.

And the GI50 [11]?
Its GI50 is 3.55 µM.

And the TGI [11]?
Its TGI is 18.1 µM.

And the GI50 [12]?
The GI50 was 2.11 µM.

And the TGI [12]?
The TGI was 7.5 µM.

What about the GI50 [13] of the same compound?
Its GI50 is 3.49 µM.

What about the TGI [13] of the same compound?
Its TGI is 21.6 µM.

And the GI50 [14]?
The GI50 was 10.4 µM.

And the TGI [14]?
Its TGI is 35.3 µM.

And the GI50 [15]?
Its GI50 is 10.7 µM.

What about the TGI [15] of the same compound?
Its TGI is 34.3 µM.

And the GI50 [16]?
Its GI50 is 2.98 µM.

And the TGI [16]?
Its TGI is 16.1 µM.

And the GI50 [17]?
Its GI50 is 7 µM.

What about the TGI [17] of the same compound?
Its TGI is 28.1 µM.

And the GI50 [18]?
Its GI50 is 5.14 µM.

And the TGI [18]?
Its TGI is 18.3 µM.

And the GI50 [19]?
The GI50 was 7.96 µM.

What about the TGI [19] of the same compound?
The TGI was 21.4 µM.

What about the GI50 [20] of the same compound?
The GI50 was 14.7 µM.

What about the TGI [20] of the same compound?
The TGI was 29.6 µM.

And the GI50 [21]?
Its GI50 is 10.3 µM.

What about the TGI [21] of the same compound?
Its TGI is 27.6 µM.

What about the GI50 [22] of the same compound?
Its GI50 is 11 µM.

What about the TGI [22] of the same compound?
The TGI was 24.6 µM.

And the GI50 [23]?
Its GI50 is 12.2 µM.

And the TGI [23]?
Its TGI is 28.1 µM.

And the GI50 [24]?
The GI50 was 6.45 µM.

And the TGI [24]?
Its TGI is 27.3 µM.

What about the GI50 [25] of the same compound?
The GI50 was 10.9 µM.

What about the TGI [25] of the same compound?
Its TGI is 43.4 µM.

And the GI50 [26]?
Its GI50 is 3.2 µM.

What about the TGI [26] of the same compound?
The TGI was 13.3 µM.

And the GI50 [27]?
Its GI50 is 11 µM.

And the TGI [27]?
The TGI was 49.5 µM.

And the GI50 [28]?
Its GI50 is 3.89 µM.

What about the TGI [28] of the same compound?
The TGI was 17.5 µM.

What about the GI50 [29] of the same compound?
The GI50 was 3.41 µM.

And the TGI [29]?
Its TGI is 17.7 µM.

What about the GI50 [30] of the same compound?
Its GI50 is 10.4 µM.

And the TGI [30]?
The TGI was 32.6 µM.

What about the GI50 [31] of the same compound?
Its GI50 is 10.8 µM.

And the TGI [31]?
The TGI was 25.4 µM.

And the GI50 [32]?
Its GI50 is 4.16 µM.

And the TGI [32]?
The TGI was 29.4 µM.

And the GI50 [33]?
The GI50 was 1.81 µM.

What about the TGI [33] of the same compound?
Its TGI is 7.67 µM.

What about the GI50 [34] of the same compound?
Its GI50 is 10.4 µM.

And the TGI [34]?
The TGI was 24 µM.

What about the GI50 [35] of the same compound?
Its GI50 is 14.7 µM.

What about the TGI [35] of the same compound?
The TGI was 30.6 µM.

What about the GI50 [36] of the same compound?
Its GI50 is 4.03 µM.

And the TGI [36]?
Its TGI is 16.9 µM.

And the GI50 [37]?
Its GI50 is 3.47 µM.

What about the TGI [37] of the same compound?
Its TGI is 20.2 µM.

What about the GI50 [38] of the same compound?
The GI50 was 2.47 µM.

And the TGI [38]?
Its TGI is 11.1 µM.

What about the GI50 [39] of the same compound?
The GI50 was 11.2 µM.

And the TGI [39]?
The TGI was 23.2 µM.

And the GI50 [40]?
The GI50 was 3.83 µM.

What about the TGI [40] of the same compound?
The TGI was 22.3 µM.

What about the GI50 [41] of the same compound?
Its GI50 is 7.7 µM.

And the TGI [41]?
The TGI was 21 µM.

What about the GI50 [42] of the same compound?
The GI50 was 1.98 µM.

What about the TGI [42] of the same compound?
Its TGI is 5.5 µM.

And the GI50 [43]?
The GI50 was 14.1 µM.

What about the TGI [43] of the same compound?
Its TGI is 35 µM.

What about the GI50 [44] of the same compound?
The GI50 was 5.27 µM.

And the TGI [44]?
The TGI was 18.2 µM.

And the GI50 [45]?
The GI50 was 14.4 µM.

And the TGI [45]?
Its TGI is 30 µM.

And the GI50 [46]?
The GI50 was 10.9 µM.

What about the TGI [46] of the same compound?
Its TGI is 35.6 µM.

And the GI50 [47]?
The GI50 was 2.15 µM.

And the TGI [47]?
Its TGI is 5.24 µM.

And the GI50 [48]?
Its GI50 is 4.31 µM.

What about the TGI [48] of the same compound?
The TGI was 16.7 µM.

And the GI50 [49]?
The GI50 was 6.77 µM.

What about the TGI [49] of the same compound?
Its TGI is 25.6 µM.

What about the GI50 [50] of the same compound?
Its GI50 is 4.08 µM.

What about the TGI [50] of the same compound?
The TGI was 14.9 µM.

And the GI50 [51]?
Its GI50 is 4.01 µM.

And the TGI [51]?
Its TGI is 18.3 µM.

What about the GI50 [52] of the same compound?
Its GI50 is 10.1 µM.

And the TGI [52]?
The TGI was 39.4 µM.

And the GI50 [53]?
Its GI50 is 9.63 µM.

What about the TGI [53] of the same compound?
The TGI was 31.1 µM.

What about the GI50 [54] of the same compound?
Its GI50 is 12.7 µM.

And the TGI [54]?
The TGI was 31.9 µM.

What about the GI50 [55] of the same compound?
The GI50 was 3.07 µM.

What about the TGI [55] of the same compound?
The TGI was 15.9 µM.

And the GI50 [56]?
The GI50 was 4.43 µM.

And the TGI [56]?
The TGI was 19 µM.

And the GI50 [57]?
The GI50 was 6.48 µM.

And the TGI [57]?
The TGI was 27.7 µM.

And the GI50 [58]?
Its GI50 is 4.7 µM.

What about the TGI [58] of the same compound?
Its TGI is 20.5 µM.

And the GI50 [59]?
Its GI50 is 9.11 µM.

What about the TGI [59] of the same compound?
Its TGI is 23 µM.
